Results taken from PubChem BioAssay AID602217 (Sanford-Burnham Center for Chemical Genomics, 2012).
The source made the active and inactive calls.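 The calls were made as follows: active = IC50 at or below a set limit; inactive = the rest.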

The molecules below were run on HL-1 cardiomyocytes, 2-deoxyglucose injury, ATPLite luminescence, 2 h (assay: protection of HL-1 cardiomyocytes from 2-deoxyglucose injury, dose response, cell-based, ATPLite luminescence (AID 602217);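 also: cells kept in glucose-free DMEM during the 2-deoxyglucose injury; potency of protection where actives preserve ATP signal against 2-deoxyglucose stress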).

| SMILES | IC50 |
| --- | --- |
| CCn1nc(C(=O)Nc2nc(-c3ccccn3)cs2)c2ccccc2c1=O | 13 µM |
| CCOC(=O)c1c2c3c(cccc3n(C)c1=O)C(=O)c1ccccc1-2 | > 79 µM (inactive) |
| CC(C)(C)OC(=O)C[C@@H]1C/C=C\C[C@@H](CC(=O)N[C@@H](CO)Cc2ccccc2)C(=O)NC[C@@H](c2ccccc2)OC1=O | > 79 µM (inactive) |
| CCOc1cc(/C=C/c2ccc3cccc([N+](=O)[O-])c3n2)ccc1OCC(=O)N(C)C | 40.3 µM (inactive) |
| COc1ccc(C(=O)O/N=C(/c2ccccc2)c2ccncc2)cc1OC | > 79 µM (inactive) |
| C=CCOC(=O)C1=C[C@H](c2cn(C(C)=O)c3ccccc23)C[C@H](OCc2ccc(CO)cc2)O1 | > 79 µM (inactive) |
| COc1cccc(-c2cnc3c(NC(C)=O)cc(-c4cccc(NS(C)(=O)=O)c4)cn23)c1 | > 79 µM (inactive) |
| O=C(NCC(=O)N(Cc1ccccc1)C(C(=O)NC1CCCCC1)c1ccco1)c1ccco1 (centres undefined) | > 79 µM (inactive) |
| CCOc1ccc(C(C(=O)NCC2CCCO2)N(C(=O)c2snc(C(N)=O)c2N)c2ccccc2F)cc1 (centres undefined) | 44.3 µM (inactive) |
| CC(=O)c1ccc(-c2cnc3c(NC=O)cc(-c4ccc(C(=O)NC5CC5)cc4)cn23)cc1 | 20 µM (inactive) |
| O=C(CN1CCN(c2ccccn2)CC1)Nc1ccc([N+](=O)[O-])cc1C(=O)Nc1ccccc1F | 17.9 µM |
| COc1cc(/C=C/c2nnc3c4ccccc4ncn23)cc(OC)c1OC | 31.9 µM (inactive) |
| COc1ccc(-c2cc3nc(-c4ccccc4)cc(N4CCN(C(C)=O)CC4)n3n2)cc1 | 43.7 µM (inactive) |
| COc1cccc(-c2cnc3c(NC=O)cc(-c4cc(C)c(O)c(C)c4)cn23)c1 | > 79 µM (inactive) |
| CC(=O)Nc1cccc(-c2cc(NC(C)=O)c3ncc(-c4ccccc4)n3c2)c1 | 30.9 µM (inactive) |
| COc1cc(-c2cc(C(=O)OCC(=O)NC3CC3)c3ccccc3n2)cc(OC)c1OC | 47.4 µM (inactive) |
| COc1cc(C(=O)N/N=C/c2ccc(OC(=O)c3cccc(C)c3)c(OC)c2)ccc1O | > 79 µM (inactive) |
| COc1cc(/C=C/C(=O)Nc2ccc3nc4n(c(=O)c3c2)CCCC4)cc(OC)c1OC | 51.5 µM (inactive) |
| COc1cc(C(=O)Nc2nc(-c3cccs3)cs2)cc(OC)c1OC | 16.9 µM |
| COc1cccc(/C=N/NC(=O)c2oc3nc(-c4ccccc4)cc(-c4ccco4)c3c2N)c1 | 4.97 µM |
| COc1cccc(Nc2nc(-c3sc(NC(=O)c4ccco4)nc3C)cs2)c1 | 26.4 µM (inactive) |
| CC(C)(C)NC(=O)COC(=O)c1c2c(nc3ccccc13)CCC2 | 23.7 µM (inactive) |
| COc1cc(OC)cc(-c2cc3nc(C)c(CCC(=O)Nc4nc(C)cs4)c(C)n3n2)c1 | > 79 µM (inactive) |
| COc1ccc(C(=O)Nc2cccc(NC(=O)c3ccc(OC)c(OC)c3)n2)cc1OC | 11.2 µM |
